Columns and labels:
[1] = tested on: MP2 cells; assay: Tumor xenograft in immuno-compromised mice; type: in vivo; details: co-treatment with AZD9291, relative to AZD9291 alone
Description: (§1) Mice and treatments. To produce tumor xenografts, 5×10^6 cells derived from either monolayer cultures or GMSC expanded spheres were dissociated with Accutase, resuspended in PBS, and injected subcutaneously in the flanks of female balb athymic mice. Once detectable tumors started to form, their sizes were measured with a caliper in three dimensions and mice were randomized in the different treatment groups. […] Cisplatin was administered at 26 mg/kg every three or four days. AZD9291 was administered at 25/mg/Kg every 3 days. Serial measurements were made every day after the identification of the initial tumor mass to determine growth curves in vivo. Tumor volume was calculated using the formula for a prolate spheroid: volume=[…], where a is the width and b is the length. All animals were sacrificed when the tumors exceeded 1.5 cm. At the completion of experiments, tumors were excised, weighed, and the statistical significances of differences in tumor volume were assessed. Animals were monitored once a week for the presence of signs of disease, particularly neurological disturbances or weight loss, and they were weighed periodically.
(§2) Statistics. For the animal studies, power calculations for each treatment group were first determined. The number of animals was calculated to detect a 50% difference at alpha=0.05 and power=0.8. Statistical significance was assessed using both unpaired, two-tailed Student t test, and analysis of variance (ANOVA). Significant differences are indicated using the standard […] scale (P<0.05, significant; P<0.01, highly significant; P<0.001, extremely significant).

[2] = tested on: MP1 cells; assay: Tumor xenograft in immuno-compromised mice; type: in vivo
Description: as §1, §2

[3] = tested on: H1299 cells; assay: Citrate levels in mitochondrial or cytoplasmic fractions; type: cell-based, human; details: 4 hours
Description: Cells, reagents, antibodies, primers. The H1299 cell lines and other cell lines employed in this study were obtained from ATCC or from the tissue culture core facility at LCCC. Cells were grown in Dulbecco's Modified Eagle's Medium (DMEM, 25 mM glucose, with glutamine and pyruvate from Invitrogen; Carlsbad, CA) and supplemented with 10% fetal calf serum (FCS). […] The SLC25A1 specific shRNA vectors were purchased from Sigma. The vector expressing human SLC25A1 untagged or Flag-Myc epitope tagged were from Origene; Rockville, MD (#SC120727 and RC200657, respectively). The anti-SLC25A1 antibody used in immuno-blot was from Santa Cruz Biotech, #sc-86392 employed at 1:1000 dilution. Citrate, lactate, and PFK measurements were performed by using commercially available kits (Biovision (Milpitas, CA)).
Mitochondria isolation and cellular sub-fractionation. Mitochondria and cytoplasmic fractions were prepared as follows. Cells were collected in PBS for 5′, then the pellet was e-suspended in 5 packed cell volumes of mitochondria buffer (250 mM sucrose; 20 mM HEPES (7.4); 10 mM KCl, 1.5 mM MgCl2; 1 mM EDTA; 1 mM EGTA 0.5 M, supplemented with freshly added PMSF and 1 mM […]). Cell lysates were passed through a 25 G needle 10 times, then 5 times through a 27 G needle, followed by incubation on ice for 10-15 minutes. Extracts were centrifuged at 720 G for 5 minutes. The supernatant was centrifuged again at 10000 G and the derived pellet provided the mitochondrial fraction and the supernatant provided the cytoplasmic fraction. To extract the mitochondria for measurement of citrate, the pellet from the previous centrifugation was resuspended in PBS and subjected to 3 cycles of freeze-and-thaw in dry ice immersed in ethanol. The fraction was centrifuged again and re-suspended in PBS. The supernatant (containing cytosolic and membrane fractions) was centrifuged multiple times to eliminate particulate material, and was used as the cytosolic fraction.

[4] = target: SLC25A1 (Homo sapiens, UniProt P53007); assay: Surface plasmon resonance (SPR) binding to recombinant purified SLC25A1; details: steady state, 1:1 binding model; human protein
Description: Surface Plasmon Resonance (SPR). SPR experiments were performed on a Biacore 4000 instrument at room temperature. The NTA sensorchip surface was activated by injecting 0.5 mM NiCl2 for 1 minute. Histidine-tagged recombinant purified SLC25A1 protein (0.07 mg/ml stock concentration) was used as the ligand to capture on the sensor surface. SLC25A1 was dissolved (1:50 dilution) in PBS-P (20 mM phosphate buffer (pH 7.4), 2.7 mM KCl, 137 mM NaCl and 0.05% surfactant P20) buffer and captured onto spots 2 and 4. SLC25A1 was captured to a level of ˜3000. PBS-P was used as the capture running buffer. Small molecules were used as analytes to flow over the ligand immobilized surface. Spot 3 of all flow cells were used as reference. The calculated theoretical Rmax was ˜30 RU based on a 1:1 interaction. The kinetics experiments were performed in the presence of HBS-P (10 mM HEPES (pH7.4), 150 mM NaCl, and 0.05% surfactant P20). The flow rate of all the solutions was maintained at 30 μL/min. The analyte concentrations were 0 μM, […], 6.25 μM, 12.5 μM, 25 μM, 50 μM, and 100 μM. Analyte concentrations showing signs of aggregation were excluded from the analysis. Data were analyzed by Biacore BiaEvaluation software for 1:1 steady state binding model.

[5] = tested on: H1299 cells; assay: Sphere forming / self-renewal assay; type: cell-based, human
Description: Growth of monolayers and sphere cultures. Tumor cell lines were grown as monolayers in complete Dulbecco's Modified Eagle's Media (DMEM, Gibco; supplemented with 10% fetal bovine serum and 1% of 5,000 units/mL of penicillin-streptomycin (pen-strep), Gibco). To generate spheroids, cells were grown in Falcon bacteriological petri dishes coated with 2% poly(2-hydroxyethyl methacrylate) dissolved in 100% ethanol. The growth media was DMEM/F12 (Gibco) supplemented with 20 ng/mL of epidermal growth factor (EGF), 5 ng/mL of fibroblast growth factor, 0.375% 100× N2 supplements (Gibco), and 1% pen-strep. Monolayer cells were dissociated using 0.25% trypsin-edta (Gibco), whereas spheroid cultures were dissociated using StemPro Accutase (Gibco). Patient derived cell lines were grown as described below in the primary lung cultures section.
Self-renewal assays. Tumor cells cultured as spheroids were dissociated and diluted in 2× sphere media containing 1% methyl cellulose, which was previously dissolved in cold DMEM/F12 media. Either 200, 500, or 1000 cells were then plated in each 96 well and were incubated in the presence or absence of drugs, as indicated. The spheres were allowed to form for a period of a week to ten days, at which point they were counted. Six biological replicates were used for quantification of the results.

Chain of SLC25A1 (P53007 14-311): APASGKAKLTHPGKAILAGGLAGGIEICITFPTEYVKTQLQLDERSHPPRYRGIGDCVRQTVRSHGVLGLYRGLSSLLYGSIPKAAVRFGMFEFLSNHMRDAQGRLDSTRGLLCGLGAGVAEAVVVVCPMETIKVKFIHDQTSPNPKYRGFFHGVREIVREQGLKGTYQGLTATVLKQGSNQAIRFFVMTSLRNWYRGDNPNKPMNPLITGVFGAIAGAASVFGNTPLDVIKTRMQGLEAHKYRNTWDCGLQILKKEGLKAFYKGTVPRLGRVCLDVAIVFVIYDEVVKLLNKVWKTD

O=C(O)c1ccccc1NS(=O)(=O)c1ccc(Cl)c([N+](=O)[O-])c1 [CTPI-2]
tumor growth inhibition, combination [1]: prominent enhancement of tumor growth inhibition
tumor growth inhibition, single agent ([2]; 26 mg/Kg alternate days i.p., GMSC-derived versus monolayer-derived tumors): more effective in inhibiting the growth of GMSC-derived MP1 tumors
body weights ([2]; 26 mg/Kg at alternate days intra-peritoneally): remained unchanged
tolerability ([2]; 26 mg/Kg at alternate days intra-peritoneally, entire treatment period): well tolerated
tumor growth inhibition, combination ([2]; CTPI-2 added to the cisplatin regimen): very significant
stem cell markers in tumors (immuno-blot) ([2]; GMSC-derived tumors (FIG. 7F)): dramatic reduction
tumor doubling times ([2]; relative to mock- and cisplatin-treated groups): significantly extended the tumor doubling times
cytoplasmic citrate ([3]; 2D cultures): reduction of cytoplasmic citrate
mitochondrial citrate ([3]; 2D cultures): induced accumulation of mitochondrial citrate
cytosolic citrate ([3]; spheres): without affecting the cytosolic citrate
mitochondrial citrate ([3]; spheres): starkly decreased mitochondrial citrate
Kd [4]: 5.3 µM
sphere forming capacity, compared with CTPI-1 ([5]; FIG. 2E): inhibited sphere forming capacity more efficiently than CTPI-1
activity in spheres versus 2D/monolayer cultures ([5]; sphere forming assay compared with monolayer): significantly more prominent in spheres than in 2D cultures
